System: High Grade PIN
Experiment: Treatment of a patient with High Grade PIN, repeat prostate biopsy
Assay type: in vivo, human
Conditions: person with High Grade PIN; 225 mg per day once daily, 30 doses; 12 biopsies two weeks after last dose; on Atorvastatin 20 mg daily
Protocol: A person was diagnosed as having High Grade PIN. The diagnosis was based upon 12 biopsies which were done in conjunction with ultrasound localization of the biopsy site, with careful recording of there anatomical position. The patient was started on Bexarotene 225 mg per day. The drug was given as a single dose once daily. […] During the period of therapy the patient was on Atorvastatin 20 mg daily. During the therapy, total cholesterol was 183 mg with a reference range <200 mg/dL, triglycerides were 207 with normal being less than 150 mg/dL, thyroid stimulation hormone (TSH) was 0.07 with the reference range 0.4-5.5 mIU/L, T4 total was 7.4 with the normal range 4.5-12.0 mcg/dL. The Hepatic Function Panel was normal as was the complete blood count (CBC). Two weeks following the last dose of Bexarotene the prostate was rebiopsied with 12 biopsies taken. Six of the biopsies were taken from the putative area, the rest in an enlarging target like pattern. The repeat biopsy was negative for the presence of PIN.

Structure (SMILES): C=C(c1ccc(C(=O)O)cc1)c1cc2c(cc1C)C(C)(C)CCC2(C)C [Bexarotene, 4-[1-(5,6,7,8-tetrahydro-3,5,5,8,8-pentamethyl-2-naphthalenyl)ethenyl] benzoic acid]
- Repeat biopsy, presence of PIN: negative

From patent US20110201664A1, “Methods and Compositions for Treatment of Prostate Intraepithelial Neoplasia” (priority 2006, published 2011)
